Values quoted from earlier work, collected in US20230392195A1, “SYNTHETIC LETHALITY-MEDIATED PRECISION ONCOLOGY VIA TUMOR TRANSCRIPTOME” (The United States of America, as Represented by the …, priority 2020, published 2023).

Tested on: advanced solid tumors
Conditions: individual patient case: everolimus in an neuroendocrine cancer patient, cabozantinib in a colon cancer patient

SMILES: CO[C@H]1C[C@@H]2CC[C@@H](C)[C@@](O)(O2)C(=O)C(=O)N2CCCC[C@H]2C(=O)O[C@H]([C@H](C)C[C@@H]2CC[C@@H](OCCO)[C@H](OC)C2)CC(=O)[C@H](C)/C=C(\C)[C@@H](O)[C@@H](OC)C(=O)[C@H](C)C[C@H](C)/C=C/C=C/C=C/1C [everolimus]
- response to the therapy in the trial: responded
